Reference: PubChem BioAssay (NCI)
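Following 48 hours of exposure in 96-well plates, responses at five concentrations were used to interpolate endpoints linearly. GI50: concentration for 50% inhibition of growth. TGI: concentration producing complete growth inhibition.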

Legend:
Assay in all cases: NCI anticancer screen, dose series, 48 h
HCT-116 colon = system: HCT-116 colon
OVCAR-3 ovarian = system: OVCAR-3 ovarian
RXF 393 renal = system: RXF 393 renal
UACC-62 melanoma = system: UACC-62 melanoma
HT29 colon = system: HT29 colon
SK-OV-3 ovarian = system: SK-OV-3 ovarian
SF-539 CNS = system: SF-539 CNS
U251 CNS = system: U251 CNS
OVCAR-8 ovarian = system: OVCAR-8 ovarian
HOP-92 NSCLC = system: HOP-92 NSCLC

Compound | TGI (HCT-116 colon) [µM] | TGI (OVCAR-3 ovarian) [µM] | TGI (RXF 393 renal) [µM] | TGI (UACC-62 melanoma) [µM] | TGI (HT29 colon) [µM] | TGI (SK-OV-3 ovarian) [µM] | TGI (SF-539 CNS) [µM] | TGI (U251 CNS) [µM] | TGI (OVCAR-8 ovarian) [µM] | TGI (HOP-92 NSCLC) [µM] | GI50 (HCT-116 colon) [µM] | GI50 (OVCAR-3 ovarian) [µM] | GI50 (HOP-92 NSCLC) [µM] | GI50 (RXF 393 renal) [µM] | GI50 (UACC-62 melanoma) [µM] | GI50 (SK-OV-3 ovarian) [µM] | GI50 (SF-539 CNS) [µM] | GI50 (U251 CNS) [µM] | GI50 (OVCAR-8 ovarian) [µM]
O=C1C=CC(=O)N1n1c(-c2ccccc2)n[nH]c1=O | > 100 | > 100 | > 100 | > 100 | > 100 | > 100 | > 100 | > 100 | > 100 |  |  |  |  |  |  |  |  |  | 
Cc1ccc(C(=O)N/N=C(\N=Nc2ccccc2)c2ccc(N(C)C)cc2)cc1 | > 100 | > 100 |  | > 100 | > 100 | > 100 | > 100 | > 100 | > 100 | > 100 |  |  |  |  |  |  |  |  | 
CC1=NN(c2nc(N)nc(-c3sccc3N)n2)C(C)(C)C1 | > 100 | > 100 |  | > 100 | > 100 | > 100 | > 100 | > 100 | > 100 | > 100 |  |  |  |  |  |  |  |  | 
COc1ccc(C2C3=C(COC3=O)Oc3cc4c(cc32)OCO4)c(OC)c1 (configuration not stated) | > 100 | 58.7 | 51 |  | > 100 | 93.1 | 43.6 | > 100 | > 100 |  |  |  |  |  |  |  |  |  | 
CC(C)(C)OC(=O)NC(Cc1ccccc1)NC(=O)NC(=O)OCc1ccccc1 (configuration not stated) | > 100 | > 100 | 69.2 | > 100 | > 100 | > 100 | 60.8 | > 100 | > 100 |  |  |  |  |  |  |  |  |  | 
O=C1N=C2SC(=S)NC(=S)N2NC12c1ccccc1-c1ccccc12 |  |  |  | > 10 | > 10 | > 10 | > 10 | > 10 | > 10 | > 10 |  |  |  |  |  |  |  |  | 
CC(C)C(CC(=O)OCC(CO)OC(=O)CC(C(C)C)C(C)C)C(C)C (configuration not stated) | 33.4 | 27.2 | 30.8 | 32.8 | 32.1 | 30.9 |  | 30.9 |  | 16.9 |  |  |  |  |  |  |  |  | 
COc1cc(-c2n/c(=C\c3c(O)[nH]c4ccc(Cl)cc34)cc3c2=Nc2ccccc2-3)ccc1F | 3.34 | 4.06 | 3.29 | 3.2 |  | 5.3 | 9.87 | 3.06 | 5.19 | 3.82 | 1.75 | 1.98 | 1.73 | 1.71 | 1.65 | 2.29 | 2.79 | 1.58 | 2.03
